# Results: publication PMC3227451, “Structure-based development of novel sirtuin inhibitors” (Aging (Albany NY), 2011)
# Read-outs that look alike come from different tables or passages of the source.
# What was measured:
# Format in all cases: biochemical
# Sirt6 = target: T1, Sirt6 (Homo sapiens, UniProt Q8N6T7); test: Fluor-de-Lys peptide deacetylation assay, Sirt6
# T1 construct: Sirt6 residues 13-308; His-tag with linker comprising a TEV protease cleavage site (N, cleaved yes); made in house; host or cells: E. coli Rosetta2
# T1 sequence (Q8N6T7 13-308): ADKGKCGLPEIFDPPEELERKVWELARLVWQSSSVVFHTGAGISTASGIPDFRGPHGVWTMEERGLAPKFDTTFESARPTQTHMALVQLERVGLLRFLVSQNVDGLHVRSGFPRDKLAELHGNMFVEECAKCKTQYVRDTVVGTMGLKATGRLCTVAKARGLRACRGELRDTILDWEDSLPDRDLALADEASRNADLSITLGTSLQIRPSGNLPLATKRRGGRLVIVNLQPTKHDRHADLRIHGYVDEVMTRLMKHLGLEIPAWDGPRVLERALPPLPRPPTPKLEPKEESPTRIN
# Experimental: (§1) The commercial Fluor-de-Lys (FdL) assay kits 1 and 2 (Biomol, Plymouth Meeting, USA) were used to test the deacetylase activity of the four Sirtuins. In both kits the substrate derived from p53 is composed of three amino acids, the acetyl lysine and a C-terminally attached fluorophor. For Sirt2 and 3, FdL-2 peptide (QPK(acetyl-K)) was used, and FdL-1 peptide (RHK(acetyl-K)) for Sirt5 and Sirt6. All tests were done with 0.1 mM of the respective FdL peptide and 0.5 mM NAD^+ as substrates.
# (§2) NCI compound stocks were prepared by dissolving them in DMSO at a concentration of 5 mM. The initial screens with all 40 compounds contained 5 μl Sirtuin solution (Sirt2/3 0.1 mg/ml stock concentration; Sirt5/6 1 mg/ml), 1 μl of compound stock (resulting in a 100 μM end concentration), 15 μl FdL substrate, and assay buffer (supplied in the assay kit) to a total volume of 50 μl. As control reactions, peptide with either the compound (without Sirtuin) or with Sirtuin and DMSO instead of compound were measured. After starting the reactions by adding the FdL substrate, assays were incubated for 30 min at 37 °C. Subsequently, 50 μl of a 10 mg/ml trypsin stock (“Developer solution”) were added and the reactions were incubated for 45 min at room temperature. Fluorescence values were measured in a fluorometric plate reader with excitation at 360 nm and read out at 485 nm. Values were then corrected with the control reaction (same compound, but without Sirtuin).
# (§3) All measurements shown are averages of duplicates (screen) or triplicates (dose-response curves), and representatives of at least two independent replications. Error bars indicate standard deviations.
# Sirt2 = target: T2, Sirt2 (Homo sapiens, UniProt Q8IXJ6); test: Fluor-de-Lys peptide deacetylation assay, Sirt2
# T2 sequence (Q8IXJ6 34-356): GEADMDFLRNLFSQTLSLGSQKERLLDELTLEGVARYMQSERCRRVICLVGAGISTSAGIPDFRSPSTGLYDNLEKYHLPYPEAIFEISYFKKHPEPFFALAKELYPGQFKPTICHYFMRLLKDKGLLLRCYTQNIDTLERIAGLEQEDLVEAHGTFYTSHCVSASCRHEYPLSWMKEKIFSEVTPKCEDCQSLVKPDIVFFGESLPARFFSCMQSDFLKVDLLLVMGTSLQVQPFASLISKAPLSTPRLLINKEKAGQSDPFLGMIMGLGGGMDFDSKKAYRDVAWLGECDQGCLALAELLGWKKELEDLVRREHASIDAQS
# Experimental: The Sirt2 construct was expressed in E. coli Rosetta2 cells (Merck) in LB/Ampicillin/Chloramphenicol medium. Cells were grown at 37 °C, and expression induced at an OD600 of 0.6-0.8 for 4 h with 0.5 mM IPTG. Harvested cells were resuspended in buffer A (50 mM Tris/HCl pH 7.8, 200 mM NaCl, 2 mM DTT), disrupted with a Sonifier, and cell debris removed by 40 min centrifugation at 4 °C, 18000 rpm in a HFA22.50 rotor. The supernatant was supplemented with 10 mM imidazole and incubated with Ni-NTA resin for 1 h at 4 °C. […] The protein was concentrated in an amicon unit (Millipore, Billerica, USA) and digested over night at 4 °C with TEV-protease. The protease was removed from cleaved Sirt2 by incubation with Ni-NTA resin for 1 h at 4 °C. The protein was concentrated, 1:5 diluted with 50 mM Tris/HCl, pH 7.8, and applied to a HiTrap Q anion exchange column (GE Healthcare) equilibrated with 50 mM Tris/HCl, pH 7.8, 50 mM NaCl, 2 mM DTT and eluted with a gradient (20 column volumes) to 50 mM Tris/HCl, pH 7.8, 1 M NaCl, 2 mM DTT. Sirt2 was then applied to a Superdex200 gel filtration column (GE Healthcare) equilibrated in 20 mM Tris/HCl, pH 7.8, 150 mM NaCl, 2 mM DTT. The eluted protein was analyzed by SDS-PAGE, re-concentrated, and shock-frozen in liquid nitrogen for storage at -80 °C.
# as §1, §2, §3
# Sirt3 = target: T3, Sirt3 (Homo sapiens, UniProt Q9NTG7); test: Fluor-de-Lys peptide deacetylation assay, Sirt3
# T3 construct: Sirt3 residues 114-399; His-tag with linker comprising a TEV protease cleavage site (N); made in house; host or cells: E. coli
# T3 sequence (Q9NTG7 114-399): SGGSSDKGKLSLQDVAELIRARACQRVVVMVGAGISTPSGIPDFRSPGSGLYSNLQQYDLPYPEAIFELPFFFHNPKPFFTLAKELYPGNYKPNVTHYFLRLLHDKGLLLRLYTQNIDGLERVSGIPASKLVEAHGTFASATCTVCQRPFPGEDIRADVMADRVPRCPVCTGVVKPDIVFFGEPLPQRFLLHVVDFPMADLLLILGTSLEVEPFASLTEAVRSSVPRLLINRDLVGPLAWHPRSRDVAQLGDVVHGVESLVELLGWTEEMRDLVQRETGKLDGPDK
# Experimental: (§4) Sirt3 was expressed in E. coli and purified via Ni-NTA and size exclusion chromatography as described elsewhere, and Sirt5 according to the protocol of Schuetz et al.. […] The protein was bound to the HiTrapQ column in buffer A and eluted in a gradient to buffer A supplemented with 400 mM KCl. Fractions were analyzed by SDS-PAGE, and the Sirt1 fractions were pooled and transferred into buffer A using a NAP column (GE Healthcare).
# as §1, §2, §3
# Sirt5 = target: T4, Sirt5 (Homo sapiens, UniProt Q9NXA8); test: Fluor-de-Lys peptide deacetylation assay, Sirt5
# T4 construct: Sirt5 residues 34-302; His-tag with linker comprising a TEV protease cleavage site (N); made in house
# T4 sequence (Q9NXA8 34-302): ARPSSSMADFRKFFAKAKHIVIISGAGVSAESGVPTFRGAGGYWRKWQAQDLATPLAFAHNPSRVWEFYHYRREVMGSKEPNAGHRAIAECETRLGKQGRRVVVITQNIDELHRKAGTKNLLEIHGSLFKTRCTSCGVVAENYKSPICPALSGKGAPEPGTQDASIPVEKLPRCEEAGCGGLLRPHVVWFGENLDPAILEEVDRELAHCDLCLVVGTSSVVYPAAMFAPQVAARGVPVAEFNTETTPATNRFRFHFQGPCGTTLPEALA
# Experimental: as §4, §1, §2, §3
# [1] = 100 μM compound, 0.1 mM FdL-1 peptide, 0.5 mM NAD+
# [2] = 100 μM compound, 0.1 mM FdL-2 peptide, 0.5 mM NAD+
SMILES,Effect on the activity of Sirt6 (Sirt6; [1]),Effect on the activity of Sirt3 (Sirt3; [2]),Effect on the activity of Sirt5 (Sirt5; [1]),Effect on the activity of Sirt2 (Sirt2; [2]),Effect on the activity of Sirt6 (Sirt6),Effect on the activity of Sirt2 (Sirt2),Effect on the activity of Sirt3 (Sirt3),Effect on the activity of Sirt5 (Sirt5)
"O=C1C2C(c3ccccc3)NC(c3ccccc3)C1C(c1ccccc1)NC2c1ccccc1 (centres unmarked) [CSC29, 2,4,6,8-tetraphenyl-3,7-diazabicyclo[3.3.1]nonan-9-one]",--- (no such effect),--- (no such effect),--- (no such effect),--- (no such effect),–,–,–,–
"O=C1C=C(Nc2nc(O)cc(C(=O)O)n2)c2ccccc2C1=O [CSC30, 2-((3,4-dioxo-3,4-dihydro-1-naphthalenyl)amino)-6-hydroxy-4-pyrimidinecarboxylic acid]",--- (no such effect),--- (no such effect),--- (no such effect),--- (no such effect),–,–,–,–
"O=c1c2ccccc2c2ccccc2c(=O)n1-c1cc2c3ccccc3ccc2c2ccccc12 [CSC31, 6-(6-chrysenyl)-5H-dibenzo[c,e]azepine-5,7(6H)-dione]",–,–,–,–,--- (key: inhibition: significant inhibitory effects (>25% loss of activity); ---: no such effect),--- (key: inhibition: significant inhibitory effects (>25% loss of activity); ---: no such effect),--- (key: inhibition: significant inhibitory effects (>25% loss of activity); ---: no such effect),--- (key: inhibition: significant inhibitory effects (>25% loss of activity); ---: no such effect)
"COc1ccc2c(c1)Cc1cc(/N=[N+](\[O-])c3ccc4c(c3)Cc3cc(OC)ccc3-4)ccc1-2 [CSC32, 1-hydroxy-1,2-bis(7-methoxy-9H-fluoren-2-yl)-1^5-diazene]",--- (no such effect),--- (no such effect),--- (no such effect),inhibition (significant inhibitory effects (>25% loss of activity)),–,–,–,–
O=C1C2C3c4ccccc4C(C2C(=O)N1c1ccc(OCc2ccccc2)cc1)[n+]1ccccc13 (centres unmarked) [CSC34],activation,--- (no such effect),--- (no such effect),inhibition (significant inhibitory effects (>25% loss of activity)),–,–,–,–
"O=C1c2ccccc2C(=O)c2c(NC(=O)c3ccc4c5c(ncnc35)-c3ccccc3C4=O)cccc21 [CSC36, N-(9,10-dioxo-9,10-dihydro-1-anthracenyl)-7-oxo-7H-benzo[e]perimidine-4-carboxamide, (Pigment Yellow 108)]",--- (no such effect),--- (no such effect),--- (no such effect),--- (no such effect),–,–,–,–
"OC1(C(O)(c2ccc(-c3ccccc3)cc2)c2ccc(-c3ccccc3)cc2)CCCCC1 [CSC39, 1-(di[1,1'-biphenyl]-4-yl(hydroxy)methyl)cyclohexanol]",--- (no such effect),--- (no such effect),--- (no such effect),--- (no such effect),–,–,–,–

# The next lines start with results.
Effect on the activity of Sirt6 (Sirt6; [1]),Effect on the activity of Sirt3 (Sirt3; [2]),Effect on the activity of Sirt5 (Sirt5; [1]),SMILES,Effect on the activity of Sirt2 (Sirt2; [2]),Effect on the activity of Sirt6 (Sirt6),Effect on the activity of Sirt2 (Sirt2),Effect on the activity of Sirt3 (Sirt3),Effect on the activity of Sirt5 (Sirt5)
activation,--- (no such effect),--- (no such effect),O=C1OC2(c3ccc(O)cc3Oc3cc(O)ccc32)c2c1c(-c1ccccc1)c(-c1ccccc1)c(-c1ccccc1)c2-c1ccccc1 [CSC28],inhibition (significant inhibitory effects (>25% loss of activity)),–,–,–,–
activation,--- (no such effect),activation,O=S1(=O)C(c2ccccc2)C(N2CCCCC2)C1C1CC2c3ccccc3C1c1ccccc12 (centres unmarked) [CSC33],--- (no such effect),–,–,–,–
--- (no such effect),--- (no such effect),--- (no such effect),"Clc1ccc(-c2noc(CN3CCCCC3)n2)cc1 [CSC37, 1-((3-(4-chlorophenyl)-1,2,4-oxadiazol-5-yl)methyl)piperidine]",inhibition (significant inhibitory effects (>25% loss of activity)),–,–,–,–
activation,--- (no such effect),activation,"O=S(=O)(c1cccc(C(F)(F)F)c1)N1c2ccccc2-n2cccc2C1c1cccnc1 (centres unmarked) [CSC38, 4-(3-pyridinyl)-5-((3-(trifluoromethyl)phenyl)sulfonyl)-4,5-dihydropyrrolo[1,2-a]quinoxaline]",inhibition (significant inhibitory effects (>25% loss of activity)),–,–,–,–
